Where “and” joins values, the source holds several entries; their conditions need not be identical. Equal values may be shown once. Inconclusive results and toxic doses are left out. Rule as the data show it: active = T/C of 150% or more; inactive = T/C below 125%.
Tested on: L1210 leukemia ip in BDF1 mice, survival T/C
Experiment: NCI In Vivo Anticancer Drug Screen. Data for tumor model L1210 Leukemia (intraperitoneal) in B6D2F1 (BDF1) mice
Settings: endpoint: mean survival time, higher = longer survival
Summary of the method: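 Antitumor effect is assessed in tumor-bearing animals. Survival in the compound arm is compared with a vehicle-dosed control arm and expressed as their quotient.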

[1] = dose: 100.0 mg/kg/injection, schedule: Q01DX009 (ip), vehicle: saline
[2] = dose: 100.0 mg/kg/injection, schedule: Q04DX002 (ip), vehicle: Klucel (hydroxypropylcellulose) (HPC)
[3] = dose: 200.0 mg/kg/injection, schedule: Q01DX009 (ip), vehicle: saline
[4] = dose: 200.0 mg/kg/injection, schedule: Q04DX002 (ip), vehicle: Klucel (hydroxypropylcellulose) (HPC)
[5] = dose: 400.0 mg/kg/injection, schedule: Q04DX002 (ip), vehicle: Klucel (hydroxypropylcellulose) (HPC)
[6] = dose: 100.0 mg/kg/injection, schedule: Q01DX001 (ip), vehicle: saline with Tween-80
[7] = dose: 200.0 mg/kg/injection, schedule: Q01DX001 (ip), vehicle: saline with Tween-80
[8] = dose: 400.0 mg/kg/injection, schedule: Q01DX001 (ip), vehicle: saline with Tween-80
[9] = dose: 100.0 mg/kg/injection, schedule: Q04DX002 (ip), vehicle: saline with Tween-80
[10] = dose: 100.0 mg/kg/injection, schedule: Q04DX003 (ip), vehicle: saline with Tween-80
[11] = dose: 200.0 mg/kg/injection, schedule: Q04DX003 (ip), vehicle: saline with Tween-80
[12] = dose: 400.0 mg/kg/injection, schedule: Q04DX003 (ip), vehicle: saline with Tween-80
[13] = dose: 100.0 mg/kg/injection, schedule: Q01DX009 (ip), vehicle: Klucel (hydroxypropylcellulose) (HPC)
[14] = dose: 100.0 mg/kg/injection, schedule: Q04DX003 (ip), vehicle: Klucel (hydroxypropylcellulose) (HPC)
[15] = dose: 200.0 mg/kg/injection, schedule: Q01DX009 (ip), vehicle: Klucel (hydroxypropylcellulose) (HPC)
[16] = dose: 200.0 mg/kg/injection, schedule: Q04DX003 (ip), vehicle: Klucel (hydroxypropylcellulose) (HPC)
[17] = dose: 400.0 mg/kg/injection, schedule: Q04DX003 (ip), vehicle: Klucel (hydroxypropylcellulose) (HPC)
[18] = dose: 100.0 mg/kg/injection, schedule: Q04DX003 (ip), vehicle: saline
[19] = dose: 200.0 mg/kg/injection, schedule: Q04DX003 (ip), vehicle: saline
[20] = dose: 400.0 mg/kg/injection, schedule: Q01DX009 (ip), vehicle: saline
[21] = dose: 400.0 mg/kg/injection, schedule: Q04DX003 (ip), vehicle: saline
[22] = dose: 100.0 mg/kg/injection, schedule: Q01DX001 (ip), vehicle: carboxymethylcellulose (CMC)
[23] = dose: 200.0 mg/kg/injection, schedule: Q01DX001 (ip), vehicle: carboxymethylcellulose (CMC)
[24] = dose: 400.0 mg/kg/injection, schedule: Q01DX001 (ip), vehicle: carboxymethylcellulose (CMC)

Measured: T/C

COc1cc(N)c2ncsc2c1
inactive: [1] 97 % of control | [2] 94 % of control | [3] 102 % of control | [4] 88 % of control | [5] 91 % of control

C=CCN1CCCCC1C1(c2ccccc2)CCCC1 (stereo unspecified)
inactive: dose: 75.0 mg/kg/injection, schedule: Q01DX001 (ip), vehicle: acid diluted with saline 92 % of control

O=C1c2ccccc2-c2cccc3ccc(C4CCCCC4)c1c23
inactive: [6] 88 % of control | [7] 88 % of control | [8] 92 % of control

Cc1cc(N(CCCl)CCCl)ccc1C1N(Cc2ccccc2N(C)C)CCCN1Cc1ccccc1N(C)C
inactive: dose: 4.0 mg/kg/injection, schedule: Q12HX018 (ip), vehicle: other 101 % of control | dose: 6.0 mg/kg/injection, schedule: Q12HX018 (ip), vehicle: other 98 % of control | dose: 8.0 mg/kg/injection, schedule: Q12HX018 (ip), vehicle: Klucel (hydroxypropylcellulose) (HPC) 102 % of control | dose: 8.0 mg/kg/injection, schedule: Q12HX018 (ip), vehicle: other 109 % of control | dose: 16.0 mg/kg/injection, schedule: Q12HX018 (ip), vehicle: Klucel (hydroxypropylcellulose) (HPC) 107 % of control | dose: 32.0 mg/kg/injection, schedule: Q12HX018 (ip), vehicle: Klucel (hydroxypropylcellulose) (HPC) 105 % of control

O=C(NC(=S)Nc1ccc(O)cc1)c1cccc([N+](=O)[O-])c1
inactive: [6] 87 % of control | dose: 100.0 mg/kg/injection, schedule: Q01DX009 (ip), vehicle: saline with Tween-80 99 % of control and 103 % of control | [9] 101 % of control | [10] 94 % of control | [7] 91 % of control | dose: 200.0 mg/kg/injection, schedule: Q01DX009 (ip), vehicle: saline with Tween-80 92 % of control and 100 % of control | dose: 200.0 mg/kg/injection, schedule: Q04DX002 (ip), vehicle: saline with Tween-80 97 % of control | [11] 96 % of control | [8] 101 % of control | dose: 400.0 mg/kg/injection, schedule: Q01DX009 (ip), vehicle: saline with Tween-80 92 % of control and 100 % of control | dose: 400.0 mg/kg/injection, schedule: Q04DX002 (ip), vehicle: saline with Tween-80 90 % of control | [12] 95 % of control

CC(O)c1cccc(NC(=O)Nc2cccc(C(F)(F)F)c2)c1 (stereo unspecified)
inactive: dose: 100.0 mg/kg/injection, schedule: Q01DX001 (ip), vehicle: Klucel (hydroxypropylcellulose) (HPC) 104 % of control | [13] 100 % of control and 109 % of control | [2] 110 % of control and 111 % of control | [14] 99 % of control | dose: 200.0 mg/kg/injection, schedule: Q01DX001 (ip), vehicle: Klucel (hydroxypropylcellulose) (HPC) 98 % of control | [15] 107 % of control and 116 % of control | [4] 108 % of control | [16] 95 % of control | dose: 400.0 mg/kg/injection, schedule: Q01DX001 (ip), vehicle: Klucel (hydroxypropylcellulose) (HPC) 98 % of control | dose: 400.0 mg/kg/injection, schedule: Q01DX009 (ip), vehicle: Klucel (hydroxypropylcellulose) (HPC) 101 % of control and 89 % of control | [5] 112 % of control and 115 % of control | [17] 103 % of control

CCOC(=N)N1C(N)=NC(=O)C1c1ccccc1 (stereo unspecified)
inactive: [1] 105 % of control | [18] 110 % of control | [3] 110 % of control | [19] 103 % of control | [20] 96 % of control | [21] 105 % of control

O=C1N(CO)C2C(N1CO)N(CO)C(=O)N2CO (stereo unspecified)
inactive: dose: 44.0 mg/kg/injection, schedule: Q04DX003 (ip), vehicle: saline 100 % of control | dose: 66.0 mg/kg/injection, schedule: Q04DX003 (ip), vehicle: saline 103 % of control | [1] 118 % of control | [18] 103 % of control | dose: 150.0 mg/kg/injection, schedule: Q04DX003 (ip), vehicle: saline 102 % of control | [3] 113 % of control | [19] 115 % of control | [20] 116 % of control | [21] 114 % of control

c1ccc2c(CCNC3=NCCO3)c[nH]c2c1
inactive: dose: 50.0 mg/kg/injection, schedule: Q04DX002 (ip), vehicle: saline with Tween-80 91 % of control | [9] 91 % of control | [14] 94 % of control | [16] 108 % of control | [17] 94 % of control

CSC(=N)c1cccc(OCc2ccccc2)c1
inactive: [13] 113 % of control | [2] 100 % of control | dose: 100.0 mg/kg/injection, schedule: Q04DX002 (ip), vehicle: saline 102 % of control | [15] 96 % of control | [4] 103 % of control | dose: 200.0 mg/kg/injection, schedule: Q04DX002 (ip), vehicle: saline 102 % of control | [5] 94 % of control | dose: 400.0 mg/kg/injection, schedule: Q04DX002 (ip), vehicle: saline 102 % of control

CCOc1ccc(C(=O)Cc2ccccc2)cc1
inactive: [10] 89 % of control | [11] 86 % of control | [12] 91 % of control

O=C(O)c1ccc(/C=N/N=C2c3ccccc3-c3ccccc32)cc1
inactive: dose: 75.0 mg/kg/injection, schedule: Q01DX001 (ip), vehicle: other 91 % of control | dose: 150.0 mg/kg/injection, schedule: Q01DX001 (ip), vehicle: other 86 % of control | dose: 300.0 mg/kg/injection, schedule: Q01DX001 (ip), vehicle: other 95 % of control

O=C1c2cc3c(cc2CCC1N1CCOCC1)CCCC3 (stereo unspecified)
inactive: [10] 111 % of control | [11] 114 % of control

CCCC/C=N\NC(=S)NCCCCCCCCCCCCCCCCCC
inactive: dose: 200.0 mg/kg/injection, schedule: Q01DX Z (ip), vehicle: saline 94 % of control | dose: 300.0 mg/kg/injection, schedule: Q01DX Z (ip), vehicle: saline 103 % of control | dose: 450.0 mg/kg/injection, schedule: Q01DX Z (ip), vehicle: saline 95 % of control | dose: 675.0 mg/kg/injection, schedule: Q01DX Z (ip), vehicle: saline 90 % of control

O=c1c2ccccc2nc2n1CCC2
inactive: dose: 25.0 mg/kg/injection, schedule: Q01DX001 (ip), vehicle: saline 102 % of control | dose: 50.0 mg/kg/injection, schedule: Q01DX001 (ip), vehicle: saline 93 % of control | dose: 75.0 mg/kg/injection, schedule: Q01DX001 (ip), vehicle: saline 104 % of control

CCOC(=O)c1oc2cc(O)cc(C)c2c1C
inactive: dose: 50.0 mg/kg/injection, schedule: Q01DX001 (ip), vehicle: carboxymethylcellulose (CMC) 97 % of control | [22] 100 % of control | [23] 94 % of control | [24] 94 % of control

CC(N)CCC(C)(C)O (stereo unspecified)
inactive: dose: 50.0 mg/kg/injection, schedule: Q01DX009 (ip), vehicle: saline 93 % of control | [1] 90 % of control

CCOC(=O)c1cnc(SC)nc1NC(C)(C)C
inactive: [14] 101 % of control | [16] 100 % of control | [17] 94 % of control

Nc1c(Br)cc(Br)cc1C(=O)O
inactive: dose: 100.0 mg/kg/injection, schedule: Q01DX001 (ip), vehicle: other 97 % of control | dose: 200.0 mg/kg/injection, schedule: Q01DX001 (ip), vehicle: other 97 % of control

COc1ccc([N+](=O)[O-])cc1NC(=O)C(Cl)Cl
inactive: [22] 99 % of control | [23] 100 % of control | [24] 110 % of control

Source: PubChem BioAssay AID248 (DTP/NCI, 2004)
